Format in all cases: biochemical
The target of assay [1] is T1, JAK1 (Homo sapiens, UniProt P23458).
T1 construct: JAK1 (aa 850-1154) and TYK2 (aa 871-1187) are expressed with an N-terminally fused GST-tag; GST (N); purchased Carna Bioscience, Inc; host or cells: baculovirus expression system
Kind of assay: In vitro enzyme assay (cell-free HTRF kinase assay), JAK1. To be noted: catalytic domain aa 850-1154, GST-tag; ATP 60 μM, SRCtide 400 nM, reaction 120 min. As to the method:
(§1) Kinase buffer [50 mM HEPES (pH 7.5), 1 mM EGTA, 10 mM MgCl2, 2 mM DTT and 0.01% Tween-20) was prepared and dilutions of a compound of formula (I) and other reagents were subsequently made in it. Two times concentrated compound of formula (I) solution: A compound of formula (I) was diluted to 100-fold final concentration in DMSO, followed by 50-fold dilution with Kinase buffer (1% DMSO final concentration). Four times concentrated Substrate/ATP mix solution: Biotin-SRCtide and ATP were diluted to 4-fold final concentration in Kinase buffer. Biotin-SRCtide solution (purchased from Anaspec) was mixed with ATP solution (1:1). Four times concentrated Enzyme solution: JAK1 or JAK2 or JAK3 or TYK2 enzyme [Human baculo virus expressed JAK1, JAK2, JAK3 and TYK2 were purchased from Carna Bioscience, Inc. All enzymes only contain the catalytic domain. JAK1 (aa 850-1154) and TYK2 (aa 871-1187) are expressed with an N-terminally fused GST-tag, and JAK2 and JAK3 with an N-terminally fused His-tag] was diluted to 4-fold final concentration in Kinase buffer and always kept on ice. Detection buffer: LANCE detection buffer (10 times concentrated) was diluted 10-fold in H2O. Four times concentrated stop solution: EDTA was diluted to a concentration of 40 mM in detection buffer. Four times concentrated ULight/Eu-antibody (from Perkin Elmer) mix solution: ULight-Streptavidin was diluted to a concentration of 100 nM (25 ng/mL final concentrations) and Eu-anti-phospho-Tyrosine (PT66) (from Perkin Elmer) was diluted to a concentration of 8 nM (2 ng/mL final concentration) in detection buffer.
(§2) Cell-free in vitro kinase assay was performed in 384 well plates. Two times concentrated compound solution (5 μL) was pipetted into a HTS 384SV Small Volume Plate. Four times concentrated Substrate/ATP mix (2.5 μL) solution was added along with 4 times concentrated Enzyme solution (2.5 μL). Plate was covered with TopSeal-A and incubated at room temperature for indicated time (Table 3). Four times concentrated Stop solution (5 μL, 10 mM final concentration) was added and incubated for 5 minutes at room temperature. Four times concentrated ULight/Eu-antibody mix solution (5 μL) was added and again plate was covered with TopSeal and incubated overnight at 4° C. TopSeal was removed and HTRF signal was measured at 615 nm and […] (excitation at 320 or 340 nm) on Tecan M1000 Multi mode plate reader. Ratio (665 nm/615 nm)×10^4 was calculated and IC50 values were deduced from Graph-pad prism 4.2.

Assay [2] deals with T2, JAK2 (Homo sapiens, UniProt O60674).
T2 construct: All enzymes only contain the catalytic domain; His (N); purchased Carna Bioscience, Inc; host or cells: baculovirus expression system
T2 sequence (O60674 849-1124 limits assumed): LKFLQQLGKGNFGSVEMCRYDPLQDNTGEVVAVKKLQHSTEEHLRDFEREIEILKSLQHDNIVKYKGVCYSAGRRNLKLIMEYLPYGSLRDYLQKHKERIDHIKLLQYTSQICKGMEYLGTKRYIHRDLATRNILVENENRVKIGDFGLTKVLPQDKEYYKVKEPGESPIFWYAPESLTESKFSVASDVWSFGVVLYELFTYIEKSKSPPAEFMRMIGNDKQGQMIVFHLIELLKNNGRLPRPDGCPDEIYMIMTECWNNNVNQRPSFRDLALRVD
Nature of the assay: In vitro enzyme assay (cell-free HTRF kinase assay), JAK2. The note with it: catalytic domain, His-tag; ATP 10 μM, SRCtide 25 nM, reaction 30 min. As to the method:
as §1, §2
On the technique in general: TR-FRET usually uses a lanthanide donor and a delayed reading to cut background.

The target in assay [3] is T3, JAK3 (Homo sapiens, UniProt P52333).
T3 construct: All enzymes only contain the catalytic domain; His (N); purchased Carna Bioscience, Inc; host or cells: baculovirus expression system
T3 sequence (P52333 822-1111 limits assumed): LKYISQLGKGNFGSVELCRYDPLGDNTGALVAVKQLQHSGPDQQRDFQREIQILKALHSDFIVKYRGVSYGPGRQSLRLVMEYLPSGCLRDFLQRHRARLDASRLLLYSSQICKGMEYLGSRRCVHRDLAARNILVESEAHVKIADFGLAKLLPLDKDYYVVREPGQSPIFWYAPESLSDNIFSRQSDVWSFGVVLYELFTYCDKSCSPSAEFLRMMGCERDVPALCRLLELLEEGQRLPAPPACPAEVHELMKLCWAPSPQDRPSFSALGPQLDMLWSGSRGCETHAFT
Kind of assay: In vitro enzyme assay (cell-free HTRF kinase assay), JAK3. To be noted: catalytic domain, His-tag; ATP 3 μM, SRCtide 100 nM, reaction 30 min. As to the method:
as §1, §2

T1 sequence (P23458 850-1154): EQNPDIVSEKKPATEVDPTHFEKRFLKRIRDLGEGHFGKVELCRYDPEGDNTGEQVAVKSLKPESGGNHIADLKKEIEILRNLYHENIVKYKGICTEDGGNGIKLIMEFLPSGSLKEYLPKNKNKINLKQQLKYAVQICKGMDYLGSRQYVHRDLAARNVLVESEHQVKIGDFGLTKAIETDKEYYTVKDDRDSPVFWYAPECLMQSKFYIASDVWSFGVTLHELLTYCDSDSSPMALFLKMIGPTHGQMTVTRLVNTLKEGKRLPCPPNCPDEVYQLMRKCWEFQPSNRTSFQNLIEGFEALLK

For `CC(C)NC(=O)c1cc(Cl)c(C(=O)n2ccc3c(NC(=O)C4CC4)nccc32)c(Cl)c1` [Compound No. 107, 3,5-Dichloro-4-({4-[(cyclopropylcarbonyl)amino]-1H-pyrrolo[3,2-c]pyridin-1-yl}carbonyl)-N-(propan-2-yl)benzamide], the half-maximal inhibitory concentration (IC50) in assay [1], in assay [2] and in assay [3] was under 0.5 µM in each case.
With `O=C(NCCO)Nc1cc(Cl)c(C(=O)n2ccc3c(NC(=O)C4CC4)nccc32)c(Cl)c1` [Compound No. 115, N-[1-(2,6-Dichloro-4-{[(2-hydroxyethyl)carbamoyl]amino}benzoyl)-1H-pyrrolo[3,2-c]pyridin-4-yl]cyclopropanecarboxamide], the values for the concentration for half-maximal inhibition (IC50) in assay [1], in assay [2] and in assay [3] were under 1 µM, under 0.5 µM and under 0.5 µM, respectively.
Turning to `CCNC(=O)c1cc(Cl)c(C(=O)c2c[nH]c3c(NC(=O)C4CC4)nccc23)c(Cl)c1` [Compound No. 13, 3,5-Dichloro-4-({7-[(cyclopropylcarbonyl)amino]-1H-pyrrolo[2,3-c]pyridin-3-yl}carbonyl)-N-ethylbenzamide], the IC50 in assay [1] was under 1 µM; in assay [2], under 0.5 µM; in assay [3] it was under 0.5 µM.
For the molecule `CN(CCO)C(=O)Nc1cc(Cl)c(C(=O)n2ccc3c(NC(=O)C4CC4)nccc32)c(Cl)c1` [Compound No. 112, N-[1-(2,6-Dichloro-4-{[(2-hydroxyethyl)(methyl)carbamoyl]amino}benzoyl)-1H-pyrrolo[3,2-c]pyridin-4-yl]cyclopropanecarboxamide], the IC50 in assay [1] is under 1 µM; in assay [2] it was under 0.5 µM; in assay [3] it was under 0.5 µM.
Consider `CCOCCCNC(=O)c1cc(Cl)c(C(=O)c2c[nH]c3c(NC(=O)C4CC4)nccc23)c(Cl)c1` [Compound No. 56, 3,5-Dichloro-4-({7-[(cyclopropylcarbonyl)amino]-1H-pyrrolo[2,3-c]pyridin-3-yl}carbonyl)-N-(3-ethoxypropyl)benzamide], for which the IC50 in assay [1], in assay [2] and in assay [3] was under 0.5 µM each time.
With `N#Cc1cc(Cl)c(C(=O)n2ccc3cnc(NC(=O)C4CC4)cc32)c(Cl)c1` [Compound No. 137, N-[1-(2,6-dichloro-4-cyanobenzoyl)-1H-pyrrolo[3,2-c]pyridin-6-yl]cyclopropanecarboxamide], the half-maximal inhibitory concentration (IC50) in assay [1] was under 0.5 µM; in assay [2] it was under 0.05 µM; in assay [3], under 0.5 µM.
With `CCNCc1cc(Cl)c(C(=O)n2ccc3c(NC(=O)C4CC4)nccc32)c(Cl)c1` [Compound No. 164, N-(1-{2,6-Dichloro-4-[(ethylamino)methyl]benzoyl}-1H-pyrrolo[3,2-c]pyridin-4-yl)cyclopropanecarboxamide], the IC50 in assay [1], in assay [2] and in assay [3] was under 0.5 µM in each case.
With `O=C(c1c(F)cccc1Cl)c1c[nH]c2c(NC(=O)C3CC3)nccc12` [Compound No. 11, N-[3-(2-Chloro-6-fluorobenzoyl)-1H-pyrrolo[2,3-c]pyridin-7-yl]cyclopropanecarboxamide], the IC50 in assay [1] was under 0.5 µM; in assay [2] it was under 0.1 µM; in assay [3], under 0.1 µM.
For the molecule `CC(CO)NC(=O)c1cc(Cl)c(C(=O)n2ccc3c(NC(=O)C4CC4)nccc32)c(Cl)c1` (stereo not drawn) [Compound No. 151, 3,5-Dichloro-4-({4-[(cyclopropylcarbonyl)amino]-1H-pyrrolo[3,2-c]pyridin-1-yl}carbonyl)-N-(1-hydroxypropan-2-yl)benzamide], the values for the half-maximal inhibitory concentration (IC50) in assay [1], in assay [2] and in assay [3] were under 1 µM, under 0.5 µM and under 0.5 µM, respectively.
For `O=C(NCC1CCCNC1)c1cc(Cl)c(C(=O)n2ccc3c(NC(=O)C4CC4)nccc32)c(Cl)c1` (stereo not drawn) [Compound No. 171, 3,5-Dichloro-4-({4-[(cyclopropylcarbonyl)amino]-1H-pyrrolo[3,2-c]pyridin-1-yl}carbonyl)-N-(piperidin-3-ylmethyl)benzamide], the figures for the IC50 in assay [1], in assay [2] and in assay [3] were under 0.5 µM, under 0.1 µM and under 0.1 µM, respectively.
For the molecule `Cc1noc(C)c1-c1cc(Cl)c(C(=O)c2c[nH]c3c(NC(=O)C4CC4)nccc23)c(Cl)c1` [Compound No. 23, N-{3-[2,6-Dichloro-4-(3,5-dimethyl-1,2-oxazol-4-yl)benzoyl]-1H-pyrrolo[2,3-c]pyridin-7-yl}cyclopropanecarboxamide], the IC50 in assay [1] was under 1 µM; in assay [2] it was under 0.5 µM; in assay [3], under 0.5 µM.
`CCNC(=O)Nc1cc(Cl)c(C(=O)n2ccc3c(NC(=O)C4CC4)nccc32)c(Cl)c1` [Compound No. 103, N-(1-{2,6-Dichloro-4-[(ethylcarbamoyl)amino]benzoyl}-1H-pyrrolo[3,2-c]pyridin-4-yl)cyclopropanecarboxamide]: the half-inhibitory concentration (IC50) is under 1 µM in assay [1], under 0.5 µM in assay [2] and under 0.5 µM in assay [3].
With `O=C(c1c(Cl)cc(CO)cc1Cl)c1c[nH]c2c(NC(=O)C3CC3)nccc12` [Compound No. 58, N-{3-[2,6-Dichloro-4-(hydroxymethyl)benzoyl]-1H-pyrrolo[2,3-c]pyridin-7-yl}cyclopropanecarboxamide], the IC50 in assay [1], in assay [2] and in assay [3] was under 1 µM each time.
With `N#Cc1cc(Cl)c(C(=O)c2c[nH]c3c(NC(=O)C4CC4)nccc23)c(Cl)c1` [Compound No. 39, N-[3-(2,6-Dichloro-4-cyanobenzoyl)-1H-pyrrolo[2,3-c]pyridin-7-yl]cyclopropanecarboxamide], the 50% inhibitory concentration (IC50) in assay [1] is under 0.5 µM; in assay [2], under 0.05 µM; in assay [3], under 0.05 µM.
As for `CC(=O)Nc1nccc2c(C(=O)c3c(Cl)cc(C(=O)NCCN4CCCC4)cc3Cl)c[nH]c12` [Compound No. 44, 4-{[7-(Acetylamino)-1H-pyrrolo[2,3-c]pyridin-3-yl]carbonyl}-3,5-dichloro-N-[2-(pyrrolidin-1-yl)ethyl]benzamide], the IC50 in assay [1], in assay [2] and in assay [3] was under 1 µM each time.
With `O=C(NCCN1CCCC1)c1cc(Cl)c(C(=O)n2ccc3c(NC(=O)C4CC4)nccc32)c(Cl)c1` [Compound No. 148, 3,5-Dichloro-4-({4-[(cyclopropylcarbonyl)amino]-1H-pyrrolo[3,2-c]pyridin-1-yl}carbonyl)-N-[2-(pyrrolidin-1-yl)ethyl]benzamide], the IC50 is under 0.5 µM in assay [1], under 0.5 µM in assay [2] and under 0.1 µM in assay [3].
In the case of `O=C(Nc1nccc2c1ccn2C(=O)c1c(Cl)cc(CNCCCO)cc1Cl)C1CC1` [Compound No. 167, N-[1-(2,6-Dichloro-4-{[(3-hydroxypropyl)amino]methyl}benzoyl)-1H-pyrrolo[3,2-c]pyridin-4-yl]cyclopropanecarboxamide], the IC50 in assay [1], in assay [2] and in assay [3] was under 0.5 µM in each case.
Take `COCCNC(=O)c1cc(Cl)c(C(=O)c2c[nH]c3c(NC(=O)C4CC4)nccc23)c(Cl)c1` [Compound No. 16, 3,5-Dichloro-4-({7-[(cyclopropylcarbonyl)amino]-1H-pyrrolo[2,3-c]pyridin-3-yl}carbonyl)-N-(2-methoxyethyl)benzamide]: the values for the IC50 in assay [1], in assay [2] and in assay [3] were under 1 µM, under 0.5 µM and under 0.5 µM, respectively.
Regarding `O=C(NCCF)c1cc(Cl)c(C(=O)n2ccc3c(NC(=O)C4CC4)nccc32)c(Cl)c1` [Compound No. 154, 3,5-Dichloro-4-({4-[(cyclopropylcarbonyl)amino]-1H-pyrrolo[3,2-c]pyridin-1-yl}carbonyl)-N-(2-fluoroethyl)benzamide], the half-inhibitory concentration (IC50) in assay [1] is under 1 µM; in assay [2] it was under 0.5 µM; in assay [3] it was under 0.5 µM.
Regarding `O=C(c1c(F)cccc1Cl)c1c[nH]c2cnc(NC(=O)C3CC3)cc12` [Compound No. 19, N-[3-(2-Chloro-6-fluorobenzoyl)-1H-pyrrolo[2,3-c]pyridin-5-yl]cyclopropanecarboxamide], the IC50 is under 0.5 µM in assay [1], under 0.05 µM in assay [2] and under 0.5 µM in assay [3].

A word on the IC50: it is the concentration needed to halve the response being measured. A lower IC50 goes with higher potency.

Source of the values: US8980911B2, “Heterocyclic compounds as protein kinase inhibitors” (Daiichi Sankyo Company, Limited, priority 2011, dated 2015).
